According to publication PMC8533149 (Biomolecules, 2021):
Read-outs that look alike come from different tables or passages of the source. Values belong to the molecule of their own block, whether it stands above or below them.

Tests used:
LTR-III G4 = experiment: NMR titration of LTR-III; assay type: binding, HIV-1; conditions: for interaction with LTR-III by NMR titration (selective signal attenuation): 50 μM LTR-III, 1D 1H NMR
Method: All NMR spectra were acquired on a Bruker Avance III 800 MHz spectrometer equipped with a cryoprobe. Titration of 50 μM LTR-III samples (70 mM KCl, 20 mM potassium phosphate buffer, pH 7.0) with 2 mM ZS260.1 and N979 ligands dissolved in DMSO was performed. 1D ^1H NMR spectra were used to track the changes during titration. ^1H-^13C HSQC and HMBC at 35 °C were used to transfer the assignment of H6/C6 and H8/C8 signals from previously obtained assignment. To identify the LTR-III residues that are most influenced by addition of ZS260.1 ligand, the intensities of cross-peaks in the ^1H-^13C HSQC spectra measured with and without added ligand were compared. The H6/C6 and H8/C8 cross-peak intensities were measured at molar ratio of LTR-III to ZS260.1 of 5:1 (35 °C, 0.5 mM LTR-III G4).
The ligand binding processes are probably in intermediate to fast regime on the NMR timescale. Therefore, the resonances of residues that are close to the ligand binding site (s) become broadened and attenuated (intermediate exchange regime).
To determine affinity of the compound ZS260.1 to LTR-III G4 we analyzed changes in H8 chemical shift of G8 residue in 1D ^1H NMR spectra. […] The titration data were successfully approximated by simple chemical reaction A + B = AB, that implies one to one stoichiometry of binding that is consistent with literature data (Suppl. S8). The dissociation constant for the LTR-III/ZS260.1 complex (Kd) was on the order of 3 μM.

[1] = system: HIV-1 LTR-III G-quadruplex (FAM/TAMRA-labeled LTR-III); experiment: FRET melting assay, LTR-III G4; assay type: binding; conditions: for LTR-III ΔTm: Table S1 primary screening, ligand:ODN 50:1, singlicate
Method in brief: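 Melting is followed by FAM fluorescence (ex 495/em 520 nm) while heating at 1 °C/min from 30 to 95 °C. Labelled ODN at 0.5 μM, pre-annealed in 10 mM Li cacodylate, 100 mM KCl, pH 7.4, mixed with ligand at 50:1 (25 μM), or 20:1 and 2:1 for titration. ΔTm is relative to the 0.25% DMSO buffer control.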

[2] = system: Telo (DNA, G4) AGGGTTAGGGTTAGGGTTAGGG; experiment: FRET melting; conditions: 100 mM KCl; 10 mM lithium cacodylate pH 7.4, 0.25% DMSO; 12.5 μM compound, 0.25 μM DNA (50:1)
[3] = system: dsDNA (DNA, duplex) CTATAGCGCGCTATAG; experiment: FRET melting; conditions: 100 mM KCl; 10 mM lithium cacodylate pH 7.4, 0.25% DMSO; 12.5 μM compound, 0.25 μM DNA (50:1)
Cytotoxicity test = assay type: cell-based; conditions: human, MT4 cells (human T cell leukemia), Figure 7
Method: (§1) Green monkey kidney (Vero, Beach, FL, USA) cell line was maintained in 2 × Eagle MEM (“Chumakov FSC R&D IBP RAS”, Russia) with 5% FBS with L-glutamine, penicillin and streptomycin. […] HIV-1 strain NL4-3 was obtained via cell transfection with pNL4-3 3 (ARP2006, NIBSC, Potters Bar, UK).
(§2) MT4 cell suspensions were added to the wells with compound dilutions and DMSO control (approx. 2 × 10^4 cells per well). […] All experimental procedures were performed in two replicates and were repeated two to four times. Mean and SD were calculated with OriginPro 8 (OriginLab, St. Louis, MO, USA).

MT4 cells = experiment: Cytotoxicity test; assay type: cell-based; conditions: Table S12, nine days
Method: as §1, §2

[4] = system: Pu39 G4 (G-rich region of the P1 promoter of BCL-2); experiment: FRET melting assay, Pu39; assay type: binding, human; conditions: Table S2, primary screening lead compounds, 50:1
Method: (§3) To evaluate stabilizing properties of the ligands in a complex with oligodeoxyribonucleotides (ODNs) melting with fluorescence registration was used. ODN (0.5 μM) (Table 1), labeled with 6-carboxyfluorescein (FAM) and 6-carboxytetramethylrhodamine (TAMRA) at the 5′- and 3′-end, respectively, were folded in lithium cacodylate buffer (10 mM, pH 7.4) with 100 mM KCl by heating at 95 °C for 5 min and gradually cooling to r.t. GFP chromophore analogs (5 mM solution in DMSO) were diluted with the same buffer to the final concentration of 25 μM and mixed with an equal volume of 0.5 μM ODN solution resulting in a molar ratio of 50:1 (total volume was 50 μL). For the titration experiments molar ratios of 20:1 and 2:1 were used. Samples were analyzed using DTprime qPCR system (DNA-Technology LLC, Moscow, Russia). Fluorescence was registered by detection of FAM emission at 520 nm upon excitation at 495 nm in the temperature range of 30–95 °C with 1 °C/min gradient. Tm was determined using the instrument software and ΔTm was calculated relative to ODN Tm in a buffer solution containing 0.25% (v/v) DMSO. The primary and secondary screening were carried out in singlicate and triplicate, respectively.
(§4) Initially we screened an in-house library of 440 synthetic GFP chromophore analogues for interaction with HIV-1 LTR-III sequence, which modulates HIV-1 promoter activity, using high-throughput screening (HTS) FRET melting assay (Table S1). […] We selected 11 compounds (Figure 2A), displaying stabilization in the range of 2.4–7.8 °C, and evaluated their ability to stabilize other G4-forming sequences, including human telomeric sequence Telo (one of the most common G4 structures in the human genome, having two conformations, Hybrid-1 and Hybrid-2 [36]) and model G4 […] (the G-rich Pu39 region of the P1 promoter of the oncogene BCL-2, an apoptosis regulator [37] with polymorphic conformational structure), as well as double stranded oligonucleotide (duplex) control sequence (Figure 2B, Table S2).

[5] = system: human telomeric sequence Telo G4; experiment: FRET melting assay, Telo; assay type: binding; conditions: Table S2, primary screening lead compounds, 50:1
Method: as §3, §4

[6] = system: dsDNA (double stranded control sequence); experiment: FRET melting assay, duplex control; assay type: binding; conditions: Table S2, primary screening lead compounds, 50:1
Method: as §3, §4

[7] = system: HIV-1 strain NL4-3 in MT4 cells; experiment: Cytopathic effect inhibition test; assay type: cell-based; conditions: HIV-1 NL4-3, MT4 cells
Method: Human T cell leukemia (MT4) cell line was maintained in RPMI-1640 (“Chumakov FSC R&D IBP RAS”, Moscow, Russia) with 10% of fetal bovine serum (FBS, Invitrogen, Waltham, MA, USA), L-glutamine and gentamicin. Green monkey kidney (Vero, Beach, FL, USA) cell line was maintained in 2 × Eagle MEM (“Chumakov FSC R&D IBP RAS”, Russia) with 5% FBS with L-glutamine, penicillin and streptomycin. Cell cultures were incubated in the present of 5% CO2 at 37 °C. HIV-1 strain NL4-3 was obtained via cell transfection with pNL4-3 3 (ARP2006, NIBSC, Potters Bar, UK).
Eight two-fold dilutions of stock solutions of the compounds in two replicates were prepared in RPMI-1640 (“Chumakov FSC R&D IBP RAS”, Russia). Compound dilutions were mixed with equal volumes of the virus suspension containing 100 CCID50 (50% tissue culture infectious dose). Control cells were treated with the same sequential concentrations of DMSO as in compound dilutions. Then, the MT4 cell suspension (approx. 2 × 10^4 cells per well) in RPMI-1640 containing 10% FBS (Invitrogen, South America) was added to experimental mixtures. A final concentration series started from 25 μM. Each experiment contained virus dose titration in the inoculate to assure the acceptable dose-range. After a nine-day incubation (5% CO2, at 37 °C), cytopathic effect (CPE) was visually accessed via microscope. EC50 values were calculated according to the Karber method. All experimental procedures were performed in two replicates and were repeated two to four times. Mean and SD were calculated with OriginPro 8 (OriginLab, St. Louis, MO, USA).

SMILES: COc1cc(/C=C2\N=C(C)N(C)C2=O)cc(OC)c1O [N 979]
interaction with LTR-III by NMR titration (selective signal attenuation) (LTR-III G4): interact with the LTR-III molecule
LTR-III ΔTm [1]: -0.2 °C
LTR-III ΔTm ([1]; listed as N979): non-stabilizing

ΔTm [2]: 3.9±0.1 °C
ΔTm [3]: -0.1±0.04 °C
SMILES: COc1ccc(/C=C/C=C/C2=NC(=C\c3ccc(O)cc3OC)/C(=O)N2C)cc1

SMILES: COc1cc(/C=C2N=C(/C=C/c3cc(Br)c(O)c(Br)c3)N(C)C\2=O)cc(OC)c1O [ZS 260.1]
CC50 at 9 days (Cytotoxicity test): 4.1 ± 0.6 µM
СС50 (MT4) (MT4 cells): 4.1 ± 0.6 µM
interaction with LTR-III by NMR titration (selective signal attenuation) (LTR-III G4): interact with the LTR-III molecule
Kd (LTR-III G4; H8 chemical shift of G8 in 1D 1H NMR, 1:1 binding model, read-out: dissociation constant for the LTR-III/ZS260.1 complex (Kd)): ~3 µM
ΔTm [2]: 0.7±0.2 °C
LTR III stabilization ([1]; Figure 7, stabilization group): > 3 °C
LTR-III ΔTm [1]: 7.8 °C
LTR-III (average) ([1]; Table S12, average stabilization): 8,35 °C
ΔTm Pu39 [4]: 0.9±0.6 °C
ΔTm [3]: 0.1±0.09 °C
ΔTm Telo [5]: 0.7±0.2 °C
ΔTm Duplex [6]: 0.1±0.09 °C
EC50 ([7]; Human immunodeficiency virus 1, NL43, 216 h, Table S12, CPE, nine-day incubation, read-out: EC50): 3.78 ± 0.91 µM
EC50 ([7]; Human immunodeficiency virus 1, NL43, Figure 7, read-out: Antiviral activity EC50 (HIV)): 3.8 ± 0.9 µM
EC50 ([7]; Table S12, CPE, nine-day incubation): micromolar range
